Measured values taken from publication PMC7158207 (Clinical Pharmacology and Therapeutics, 2019).
Values after ≈ are worked out from the molar mass of the structure shown. Structures can show the parent of a compound that is named as a salt. Where two headings read alike, the source gives them in different places.

Assays:
[1] = BCS II/IV drugs; cited from earlier work
[2] = Thermodynamic solubility measurement in FaSSIF pH 6.5 and SGF pH 1.6; format: physicochemical; conditions: 37 °C, thermodynamic from solid
[3] = cited from earlier work
[4] = Caco-2 apparent passive permeability; format: in vitro ADME; conditions: human, Caco-2, pH 7.4
[5] = Dose-exposure proportionality in dose-escalating studies; format: in vivo, human; conditions: based on data of ref 20
[6] = ref 36 (dabrafenib), 40 (vemurafenib), 18 (pazopanib); cited from earlier work
[7] = cited from earlier work; for AUC fed/fasted ratio / Cmax fed/fasted ratio: erlotinib 150 mg
[8] = after oral administration; cited from earlier work
[9] = SGF, pH 1.6, simulated gastric fluid
[10] = single dose, crizotinib 50-300, trametinib 0.125-10, dabrafenib 12-300, gefitinib 50-500 (HV), vemurafenib 240-960, pazopanib 50-2,000 mg

O=C1NC(=O)C(c2ccccc2)(c2ccccc2)N1 [phenytoin]
absolute bioavailability (F) [1]: > 90%

CCCS(=O)(=O)Nc1ccc(F)c(C(=O)c2c[nH]c3ncc(-c4ccc(Cl)cc4)cc23)c1F [Vemurafenib, vemurafenib]
solubility at 24 h ([2]; FaSSIF, pH 6.5, fassif): 5.4 µg/mL (≈ 11 µM)
solubility at 24 h [2, 9]: 0.3 µg/mL (≈ 0.612 µM)
Increase in exposure (dose-exposure proportionality) [3, 10]: Dose proportional Dose proportional40
Papp [4]: 0.11 ×10⁻⁶ cm/s

C[C@@H](Oc1cc(-c2cnn(C3CCNCC3)c2)cnc1N)c1c(Cl)ccc(F)c1Cl [Crizotinib]
solubility at 24 h ([2]; FaSSIF, pH 6.5, fassif): 743 µg/mL (≈ 1650 µM)
dose proportionality of single-dose PK in the authors' assessment [5]: linear
Increase in exposure (dose-exposure proportionality) [3, 10]: Less than proportional
Papp [4]: 15.3 ×10⁻⁶ cm/s

CC(C)(C)c1nc(-c2cccc(NS(=O)(=O)c3c(F)cccc3F)c2F)c(-c2ccnc(N)n2)s1 [Dabrafenib, Dabrafenib mesylate]
solubility at 24 h ([2]; FaSSIF, pH 6.5, fassif): 3.7 µg/mL
solubility at 24 h [2, 9]: 11.7 µg/mL
Increase in exposure (dose-exposure proportionality) [3, 10]: Dose proportional
Papp [4]: 12.4 ×10⁻⁶ cm/s

Cc1ccc(Nc2nccc(N(C)c3ccc4c(C)n(C)nc4c3)n2)cc1S(N)(=O)=O [Pazopanib, pazopanib hydrochloride (HCl)]
pKa values (acidic) [6]: 10.218
solubility at 24 h ([2]; FaSSIF, pH 6.5, fassif): 1.2 µg/mL
solubility at 24 h [2, 9]: 1080 µg/mL
Increase in exposure (dose-exposure proportionality) [3, 10]: Less than proportional Less than proportional18
Papp [4]: 28.5 ×10⁻⁶ cm/s

C#Cc1cccc(Nc2ncnc3cc(OCCOC)c(OCCOC)cc23)c1 [Erlotinib, erlotinib HCl]
AUC fed/fasted ratio ([7]; first value (first period)): 1.97
Cmax fed/fasted ratio ([7]; first value (first period)): 1.57
AUC fed/fasted ratio ([7]; second value (second period)): 0.93
Cmax fed/fasted ratio ([7]; second value (second period)): 1.15
dose as parent drug in the feces [8]: 1 % of the dose
solubility at 24 h ([2]; FaSSIF, pH 6.5, fassif): 12.4 µg/mL
solubility at 24 h [2, 9]: 166 µg/mL
Increase in exposure (dose-exposure proportionality) ([3]; dosing schedule N.A., imatinib 25-1,000 mg, erlotinib 100-1,000 mg): Dose proportional38
Papp [4]: 40.4 ×10⁻⁶ cm/s

CS(=O)(=O)CCNCc1ccc(-c2ccc3ncnc(Nc4ccc(OCc5cccc(F)c5)c(Cl)c4)c3c2)o1 [Lapatinib, lapatinib ditosylate monohydrate]
solubility at 24 h ([2]; FaSSIF, pH 6.5, fassif): 35 µg/mL
solubility at 24 h [2, 9]: 5.5 µg/mL
Papp [4]: 0.21 ×10⁻⁶ cm/s

COc1cc2ncnc(Nc3ccc(F)c(Cl)c3)c2cc1OCCCN1CCOCC1 [Gefitinib, gefitinib]
solubility at 24 h ([2]; FaSSIF, pH 6.5, fassif): 88.7 µg/mL (≈ 198 µM)
Increase in exposure (dose-exposure proportionality) [3, 10]: Dose proportional
Papp [4]: 10.4 ×10⁻⁶ cm/s

CC(=O)Nc1cccc(-n2c(=O)n(C3CC3)c(=O)c3c(Nc4ccc(I)cc4F)n(C)c(=O)c(C)c32)c1 [Trametinib, trametinib *DMSO solvate]
food effect ([7]; poorly water-soluble anticancer drugs): only a modest food effect, if any
Increase in exposure (dose-exposure proportionality) [3, 10]: More than proportional (Cmax proportional)24
Papp [4]: 15.4 ×10⁻⁶ cm/s
